In ChEMBL document CHEMBL5465560, “Selectivity Literature for EUbOPEN Chemogenomic Library” (2024):

Experiments:
[1] = target: Serine/threonine-protein kinase 32A (Homo sapiens) (UniProt Q8WU08); details: at 10 µM
[2] = target: T1, Serine/threonine-protein kinase BRSK1 (Homo sapiens) (UniProt Q8TDC3); details: at 10 µM
T1 sequence (whole entry): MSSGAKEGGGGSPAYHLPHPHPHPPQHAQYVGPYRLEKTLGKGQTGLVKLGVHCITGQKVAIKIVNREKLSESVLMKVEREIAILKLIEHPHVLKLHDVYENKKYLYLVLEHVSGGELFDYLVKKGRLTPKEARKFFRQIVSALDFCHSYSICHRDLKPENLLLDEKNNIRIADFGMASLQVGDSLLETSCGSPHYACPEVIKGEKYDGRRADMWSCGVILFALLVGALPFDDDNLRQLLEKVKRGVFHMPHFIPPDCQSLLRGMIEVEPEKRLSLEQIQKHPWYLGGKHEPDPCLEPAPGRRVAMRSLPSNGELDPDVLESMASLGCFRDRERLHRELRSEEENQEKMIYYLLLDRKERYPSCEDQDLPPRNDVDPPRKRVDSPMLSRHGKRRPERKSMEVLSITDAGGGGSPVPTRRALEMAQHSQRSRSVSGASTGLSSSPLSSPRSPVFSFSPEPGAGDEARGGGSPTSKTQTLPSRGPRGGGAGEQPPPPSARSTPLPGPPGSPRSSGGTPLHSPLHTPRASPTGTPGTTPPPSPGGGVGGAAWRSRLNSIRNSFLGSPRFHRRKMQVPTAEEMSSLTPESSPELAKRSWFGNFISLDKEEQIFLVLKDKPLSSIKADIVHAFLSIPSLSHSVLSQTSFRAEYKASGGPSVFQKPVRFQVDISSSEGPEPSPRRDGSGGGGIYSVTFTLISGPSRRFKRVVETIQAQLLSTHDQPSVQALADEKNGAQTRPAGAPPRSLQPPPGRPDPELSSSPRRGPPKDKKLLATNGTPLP

[3] = target: Mitogen-activated protein kinase 14 (Homo sapiens, UniProt Q16539); assay: Selectivity interaction (KinomeScan (DiscoverX)) EUB0001049a MAPK14; details: at 1 µM
[4] = target: Phosphatidylinositol 4-kinase beta (Homo sapiens, UniProt Q9UBF8); assay: Selectivity interaction (KinomeScan (DiscoverX)) EUB0000695a PI4KB; details: at 100 nM
[5] = target: Mitogen-activated protein kinase kinase kinase 9 (Homo sapiens) (UniProt P80192); details: at 10 µM
[6] = target: T2, Phosphatidylinositol 5-phosphate 4-kinase type-2 gamma (Homo sapiens) (UniProt Q8TBX8); assay: Selectivity interaction (KinomeScan (DiscoverX)) EUB0000595a PIP4K2C; details: at 10 µM
T2 sequence (whole entry): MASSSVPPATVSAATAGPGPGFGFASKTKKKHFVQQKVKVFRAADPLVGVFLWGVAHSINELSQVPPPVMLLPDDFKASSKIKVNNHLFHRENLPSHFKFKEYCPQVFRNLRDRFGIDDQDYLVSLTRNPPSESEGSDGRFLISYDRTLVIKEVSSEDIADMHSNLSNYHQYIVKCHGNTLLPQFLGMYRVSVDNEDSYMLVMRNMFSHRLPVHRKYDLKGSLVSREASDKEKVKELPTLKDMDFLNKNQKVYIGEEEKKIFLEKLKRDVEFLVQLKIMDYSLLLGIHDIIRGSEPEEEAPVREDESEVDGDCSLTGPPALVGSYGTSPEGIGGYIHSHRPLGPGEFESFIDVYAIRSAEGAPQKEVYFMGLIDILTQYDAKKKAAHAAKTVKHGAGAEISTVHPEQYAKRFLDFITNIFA

[7] = target: Interferon-induced, double-stranded RNA-activated protein kinase (Homo sapiens) (UniProt P19525); assay: Selectivity interaction (KinomeScan (DiscoverX)) EUB0000045b EIF2AK2
[8] = target: T3, Rhodopsin kinase GRK1 (Homo sapiens) (UniProt Q15835); assay: Selectivity interaction (KinomeScan (DiscoverX)) EUB0001619a GRK1; details: at 1 µM
T3 sequence (whole entry): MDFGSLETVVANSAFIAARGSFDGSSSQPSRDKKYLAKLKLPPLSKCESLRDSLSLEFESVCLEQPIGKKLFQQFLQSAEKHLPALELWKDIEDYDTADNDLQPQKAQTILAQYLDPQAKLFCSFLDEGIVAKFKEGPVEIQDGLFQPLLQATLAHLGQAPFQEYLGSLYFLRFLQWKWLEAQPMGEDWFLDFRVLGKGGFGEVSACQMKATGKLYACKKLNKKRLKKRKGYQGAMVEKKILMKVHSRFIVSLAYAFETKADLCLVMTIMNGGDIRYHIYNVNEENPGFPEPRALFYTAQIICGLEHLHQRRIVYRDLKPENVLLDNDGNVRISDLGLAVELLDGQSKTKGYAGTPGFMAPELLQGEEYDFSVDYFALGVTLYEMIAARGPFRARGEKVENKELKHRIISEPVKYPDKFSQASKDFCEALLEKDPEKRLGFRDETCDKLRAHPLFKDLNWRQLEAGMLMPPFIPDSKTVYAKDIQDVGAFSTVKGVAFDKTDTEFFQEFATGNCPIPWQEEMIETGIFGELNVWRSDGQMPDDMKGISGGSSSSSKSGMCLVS

[9] = target: Cyclin-dependent kinase-like 3 (Homo sapiens) (UniProt Q8IVW4); assay: Selectivity interaction (KinomeScan (DiscoverX)) EUB0000607a CDKL3; details: at 10 µM
[10] = target: Myosin light chain kinase 2, skeletal/cardiac muscle (Homo sapiens) (UniProt Q9H1R3); assay: Selectivity interaction (KinomeScan (DiscoverX)) EUB0000666a MYLK2; details: at 10 µM
[11] = target: Kappa-type opioid receptor (Homo sapiens, UniProt P41145); assay: Selectivity interaction (Panel of kinases, GPCRs, ion channels and transporters (enzymatic assay)) EUB0000223bCl OPRK1
[12] = target: Cyclin-dependent kinase-like 1 (Homo sapiens) (UniProt Q00532); assay: Selectivity interaction (Kinase panel (DSF assay)) EUB0001558a CDKL1
Chain of Cyclin-dependent kinase-like 1 (Homo sapiens) (Q00532 whole entry): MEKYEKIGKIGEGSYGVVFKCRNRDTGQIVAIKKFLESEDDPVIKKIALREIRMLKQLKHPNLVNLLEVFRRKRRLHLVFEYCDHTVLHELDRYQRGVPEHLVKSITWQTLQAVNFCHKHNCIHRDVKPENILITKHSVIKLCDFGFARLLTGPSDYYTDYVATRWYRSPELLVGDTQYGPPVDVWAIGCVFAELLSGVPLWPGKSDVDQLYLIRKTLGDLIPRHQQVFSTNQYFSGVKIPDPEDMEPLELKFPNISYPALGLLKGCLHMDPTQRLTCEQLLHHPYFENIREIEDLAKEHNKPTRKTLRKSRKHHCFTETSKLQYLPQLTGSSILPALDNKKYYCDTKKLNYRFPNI

Chain of Interferon-induced, double-stranded RNA-activated protein kinase (Homo sapiens) (P19525 whole entry): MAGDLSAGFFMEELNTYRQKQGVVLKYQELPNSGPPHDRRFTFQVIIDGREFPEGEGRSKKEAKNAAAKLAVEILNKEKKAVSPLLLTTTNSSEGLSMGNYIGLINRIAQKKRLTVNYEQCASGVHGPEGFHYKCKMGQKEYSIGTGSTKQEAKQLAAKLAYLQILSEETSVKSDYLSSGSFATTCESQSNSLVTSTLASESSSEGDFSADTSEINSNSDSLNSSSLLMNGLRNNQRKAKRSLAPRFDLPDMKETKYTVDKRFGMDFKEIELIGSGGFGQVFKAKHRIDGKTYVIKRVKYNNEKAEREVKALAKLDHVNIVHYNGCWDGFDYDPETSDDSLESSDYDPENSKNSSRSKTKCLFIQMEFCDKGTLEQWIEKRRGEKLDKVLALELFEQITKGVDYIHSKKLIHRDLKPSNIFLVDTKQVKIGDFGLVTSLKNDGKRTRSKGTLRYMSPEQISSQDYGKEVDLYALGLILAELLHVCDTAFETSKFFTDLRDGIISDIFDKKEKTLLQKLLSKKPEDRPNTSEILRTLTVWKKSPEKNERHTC
Chain of Myosin light chain kinase 2, skeletal/cardiac muscle (Homo sapiens) (Q9H1R3 whole entry): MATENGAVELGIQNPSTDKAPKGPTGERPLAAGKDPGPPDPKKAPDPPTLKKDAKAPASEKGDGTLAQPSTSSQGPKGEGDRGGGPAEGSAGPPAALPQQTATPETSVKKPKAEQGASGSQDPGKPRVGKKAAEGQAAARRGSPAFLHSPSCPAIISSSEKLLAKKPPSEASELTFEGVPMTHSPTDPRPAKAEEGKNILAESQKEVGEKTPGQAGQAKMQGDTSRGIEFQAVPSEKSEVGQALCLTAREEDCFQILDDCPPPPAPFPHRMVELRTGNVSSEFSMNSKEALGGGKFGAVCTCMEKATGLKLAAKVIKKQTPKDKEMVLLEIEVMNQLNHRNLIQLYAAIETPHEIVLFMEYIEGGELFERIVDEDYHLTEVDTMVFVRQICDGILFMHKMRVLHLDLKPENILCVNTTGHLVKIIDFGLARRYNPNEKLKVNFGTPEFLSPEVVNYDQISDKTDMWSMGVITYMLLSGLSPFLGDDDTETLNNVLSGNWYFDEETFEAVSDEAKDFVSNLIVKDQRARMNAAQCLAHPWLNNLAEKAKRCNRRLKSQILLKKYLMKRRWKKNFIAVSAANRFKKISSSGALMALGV
Chain of Phosphatidylinositol 4-kinase beta (Q9UBF8 2-816 limits assumed): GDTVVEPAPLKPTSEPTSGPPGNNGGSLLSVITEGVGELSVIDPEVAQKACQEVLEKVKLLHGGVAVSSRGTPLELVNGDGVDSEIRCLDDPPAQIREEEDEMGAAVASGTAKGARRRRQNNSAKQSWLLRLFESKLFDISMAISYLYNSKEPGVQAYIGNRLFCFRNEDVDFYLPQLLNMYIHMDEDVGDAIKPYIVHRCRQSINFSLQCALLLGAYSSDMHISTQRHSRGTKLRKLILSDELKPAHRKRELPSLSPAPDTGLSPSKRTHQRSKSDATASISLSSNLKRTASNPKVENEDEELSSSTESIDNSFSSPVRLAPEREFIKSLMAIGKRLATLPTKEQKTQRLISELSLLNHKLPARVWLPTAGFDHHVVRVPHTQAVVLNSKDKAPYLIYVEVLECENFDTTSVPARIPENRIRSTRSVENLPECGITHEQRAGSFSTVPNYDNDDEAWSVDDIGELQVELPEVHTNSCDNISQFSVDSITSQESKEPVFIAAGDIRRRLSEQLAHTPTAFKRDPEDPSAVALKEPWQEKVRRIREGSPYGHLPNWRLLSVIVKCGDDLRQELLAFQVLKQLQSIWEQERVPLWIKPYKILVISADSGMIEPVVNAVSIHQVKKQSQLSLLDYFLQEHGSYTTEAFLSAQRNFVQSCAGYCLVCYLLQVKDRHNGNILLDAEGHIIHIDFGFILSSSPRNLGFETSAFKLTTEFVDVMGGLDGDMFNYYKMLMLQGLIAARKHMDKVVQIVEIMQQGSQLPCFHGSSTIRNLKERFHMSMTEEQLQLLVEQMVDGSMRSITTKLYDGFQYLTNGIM
Chain of Cyclin-dependent kinase-like 3 (Homo sapiens) (Q8IVW4 whole entry, looked up): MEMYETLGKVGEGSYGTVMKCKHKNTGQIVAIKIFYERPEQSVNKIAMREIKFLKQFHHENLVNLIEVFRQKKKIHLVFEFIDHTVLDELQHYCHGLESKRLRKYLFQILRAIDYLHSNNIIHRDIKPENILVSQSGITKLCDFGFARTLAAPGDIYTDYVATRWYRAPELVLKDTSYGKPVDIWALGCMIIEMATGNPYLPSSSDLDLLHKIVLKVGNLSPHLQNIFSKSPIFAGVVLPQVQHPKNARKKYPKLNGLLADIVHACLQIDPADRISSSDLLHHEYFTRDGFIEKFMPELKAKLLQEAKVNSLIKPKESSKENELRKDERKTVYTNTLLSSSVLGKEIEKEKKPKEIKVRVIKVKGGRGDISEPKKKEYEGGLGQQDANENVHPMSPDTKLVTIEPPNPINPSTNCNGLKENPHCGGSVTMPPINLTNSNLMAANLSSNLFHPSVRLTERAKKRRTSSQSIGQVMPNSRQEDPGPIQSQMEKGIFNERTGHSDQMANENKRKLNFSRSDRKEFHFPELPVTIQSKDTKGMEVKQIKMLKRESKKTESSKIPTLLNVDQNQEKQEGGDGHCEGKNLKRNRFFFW
Chain of Mitogen-activated protein kinase 14 (Q16539 whole entry): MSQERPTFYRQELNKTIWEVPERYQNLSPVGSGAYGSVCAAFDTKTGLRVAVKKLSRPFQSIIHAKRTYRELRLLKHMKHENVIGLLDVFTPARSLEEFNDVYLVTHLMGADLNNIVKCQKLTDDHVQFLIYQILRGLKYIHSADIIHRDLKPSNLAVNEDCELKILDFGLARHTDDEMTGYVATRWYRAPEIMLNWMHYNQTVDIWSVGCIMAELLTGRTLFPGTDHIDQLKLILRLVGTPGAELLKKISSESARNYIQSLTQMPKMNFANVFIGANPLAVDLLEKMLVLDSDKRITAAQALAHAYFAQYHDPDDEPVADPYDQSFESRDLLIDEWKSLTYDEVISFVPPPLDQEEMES
Chain of Mitogen-activated protein kinase kinase kinase 9 (Homo sapiens) (P80192 whole entry, looked up): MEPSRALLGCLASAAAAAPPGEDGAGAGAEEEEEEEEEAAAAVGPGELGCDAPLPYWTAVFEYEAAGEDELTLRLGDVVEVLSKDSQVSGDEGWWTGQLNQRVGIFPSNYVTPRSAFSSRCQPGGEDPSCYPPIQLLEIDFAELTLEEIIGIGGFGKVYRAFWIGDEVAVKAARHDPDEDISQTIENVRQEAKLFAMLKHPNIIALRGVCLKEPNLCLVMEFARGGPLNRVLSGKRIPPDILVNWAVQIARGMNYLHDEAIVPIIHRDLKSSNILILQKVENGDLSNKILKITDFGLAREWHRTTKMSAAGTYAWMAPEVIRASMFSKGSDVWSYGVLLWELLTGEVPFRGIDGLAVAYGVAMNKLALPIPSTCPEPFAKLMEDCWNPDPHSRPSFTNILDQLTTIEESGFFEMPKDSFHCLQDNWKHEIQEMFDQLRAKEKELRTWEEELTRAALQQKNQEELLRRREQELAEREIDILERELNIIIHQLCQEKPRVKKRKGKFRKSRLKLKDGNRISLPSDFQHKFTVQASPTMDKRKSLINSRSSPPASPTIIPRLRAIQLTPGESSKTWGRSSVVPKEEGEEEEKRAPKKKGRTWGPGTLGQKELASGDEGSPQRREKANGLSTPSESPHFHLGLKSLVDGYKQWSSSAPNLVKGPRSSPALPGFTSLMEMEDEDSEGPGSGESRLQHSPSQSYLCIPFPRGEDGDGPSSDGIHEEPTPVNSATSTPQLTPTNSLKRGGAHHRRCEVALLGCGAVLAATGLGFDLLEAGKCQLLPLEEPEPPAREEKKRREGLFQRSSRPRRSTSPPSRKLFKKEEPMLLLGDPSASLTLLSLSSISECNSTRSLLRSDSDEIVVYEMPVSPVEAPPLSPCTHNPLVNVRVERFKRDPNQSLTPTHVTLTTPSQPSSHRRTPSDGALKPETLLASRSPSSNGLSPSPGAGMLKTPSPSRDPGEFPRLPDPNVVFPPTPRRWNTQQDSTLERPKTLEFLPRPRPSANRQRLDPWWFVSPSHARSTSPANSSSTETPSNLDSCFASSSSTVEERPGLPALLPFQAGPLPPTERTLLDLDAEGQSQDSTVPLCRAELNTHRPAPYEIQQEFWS
Chain of Serine/threonine-protein kinase 32A (Homo sapiens) (Q8WU08 whole entry): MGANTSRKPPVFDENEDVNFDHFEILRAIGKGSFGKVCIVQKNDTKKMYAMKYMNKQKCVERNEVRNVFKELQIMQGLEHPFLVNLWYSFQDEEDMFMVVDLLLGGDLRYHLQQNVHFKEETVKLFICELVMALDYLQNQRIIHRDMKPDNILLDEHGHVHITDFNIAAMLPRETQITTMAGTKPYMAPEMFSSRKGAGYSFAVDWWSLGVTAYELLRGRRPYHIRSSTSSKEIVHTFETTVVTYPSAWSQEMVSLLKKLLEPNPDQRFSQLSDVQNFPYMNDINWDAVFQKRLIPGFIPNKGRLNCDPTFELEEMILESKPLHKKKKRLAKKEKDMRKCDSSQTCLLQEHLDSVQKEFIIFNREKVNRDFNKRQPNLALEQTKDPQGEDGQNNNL

Question: Which results are given for `Cc1cc([C@@H](C)Nc2ccccc2C(=O)O)c2nc(N3CCOCC3)cc(=O)n2c1` [AZD-6482]?
Answer: % of control [1]: 89%; % of control [2]: 99%

Question: With `COc1cc(Nc2nc(C)cc(-c3cnn4nc(OC)ccc34)n2)cc(C(F)(F)F)c1` as the compound, how does the % of control [3] read?
Answer: 87%

Question: How did the % of control [4] turn out when `Cc1cc(F)c(C(=O)Nc2cccc(-c3nncn3C(C)C)n2)cc1-n1cnc(C2CC2)c1` was run?
Answer: 100%

Question: With `CCN(CC)CCCCNc1ncc2cc(-c3cc(OC)cc(OC)c3)c(NC(=O)NC(C)(C)C)nc2n1` as the compound, how does the % of control [5] read?
Answer: 100%

Question: With `COCC(=O)NC/C=C/c1ccc2ncnc(Nc3ccc(Oc4ccc(C)nc4)c(C)c3)c2c1` [CP-724714] as the compound, how does the % of control [6] read?
Answer: 84%

Question: How did the % of control ([7]; at 1 µM) turn out when `C=CC(=O)Nc1cc(-n2c(=O)ccc3cnc4ccc(-c5ccc(NS(C)(=O)=O)cc5)cc4c32)ccc1C` was run?
Answer: 100%

Question: And the % of control ([7]; at 10 µM)?
Answer: 71%

Question: For `N#Cc1cccc(-c2c[nH]c3ncnc(N4CCOCC4)c23)c1`, which % of control [8] is on record?
Answer: 74%

Question: Which % of control [9] does the source give for `CNC(=O)Nc1ccc(-c2nc(N3CC4CCC(C3)O4)c3cnn(C4CCC5(CC4)OCCO5)c3n2)cc1` here?
Answer: 95%

Question: Which % of control [10] does the source give for `O=C(NOC[C@H](O)CO)c1ccc(F)c(F)c1Nc1ccc(I)cc1F` here?
Answer: 100%

Question: With `COc1cc(C(=O)N2CC[C@@H](O)[C@@H](N)C2)cc2nc(-c3cc4ccccc4n3CC3CC3)n(C)c12` as the compound, how does the pXC50 [11] read?
Answer: 4.1 M

Question: `CC(C)(O)[C@H](F)CN1Cc2cc(NC(=O)c3cnn4cccnc34)c(N3CCOCC3)cc2C1=O` was tested. Which dTM [12] did it give?
Answer: -0.4 K
